From US8802597B2, “Herbicidal pyrimidines” (E I du Pont de Nemours and Company, priority 2003, dated 2014)
Like-named read-outs stand apart in the source and are kept apart here.

How the values were obtained:
Assay type in all cases: in vivo
[1] = test system: barnyardgrass (Echinochloa crus-galli); test: Test A pre/postemergence; conditions: Echinochloa crus-galli, 240 h, read-out: Plant response rating, Barnyardgrass; for pest or weed control at 125 g/ha: 125 g ai/ha; for pest or weed control at 500 g/ha: 500 g ai/ha
How it was run: (§1)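 Visual injury scored 0–100 (0 = no effect, 100 = complete control) against untreated controls after about ten days in the greenhouse. Compounds, formulated in non-phytotoxic solvent plus surfactant, were applied preemergence as a directed soil spray and postemergence at the 1- to 2-leaf stage (2–10 cm).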

[2] = test system: crabgrass (Digitaria sanguinalis); test: Test A pre/postemergence; conditions: Digitaria sanguinalis, 240 h, read-out: Plant response rating, Crabgrass; for pest or weed control at 125 g/ha: 125 g ai/ha; for pest or weed control at 500 g/ha: 500 g ai/ha
How it was run: as §1

[3] = test system: giant foxtail (Setaria faberi); test: Test A pre/postemergence; conditions: Setaria faberi, 240 h, read-out: Plant response rating, Foxtail, Giant; for pest or weed control at 125 g/ha: 125 g ai/ha; for pest or weed control at 500 g/ha: 500 g ai/ha
How it was run: as §1

[4] = test system: morningglory (Ipomoea spp.); test: Test A pre/postemergence; conditions: Ipomoea, 240 h, read-out: Plant response rating, Morningglory; for pest or weed control at 125 g/ha: 125 g ai/ha; for pest or weed control at 500 g/ha: 500 g ai/ha
How it was run: as §1

[5] = test system: redroot pigweed (Amaranthus retroflexus); test: Test A pre/postemergence; conditions: Amaranthus retroflexus, 240 h, read-out: Plant response rating, Pigweed; for pest or weed control at 125 g/ha: 125 g ai/ha; for pest or weed control at 500 g/ha: 500 g ai/ha
How it was run: as §1

[6] = test system: velvetleaf (Abutilon theophrasti); test: Test A pre/postemergence; conditions: Abutilon theophrasti, 240 h, read-out: Plant response rating, Velvetleaf; for pest or weed control at 125 g/ha: 125 g ai/ha; for pest or weed control at 500 g/ha: 500 g ai/ha
How it was run: as §1

[7] = test system: giant foxtail (Setaria faberii); test: Test C pre/postemergence; conditions: Setaria faberi; for pest or weed control at 8 g/ha: 8 g ai/ha; for pest or weed control at 31 g/ha: 31 g ai/ha; for pest or weed control at 62 g/ha: 62 g ai/ha
How it was run: (§2)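 Visual injury ratings, 0 (no effect) to 100 (complete control), made 12 to 14 days after treatment by comparison with untreated controls. Greenhouse plants received test chemical in a surfactant-containing non-phytotoxic solvent, either preemergence on planted seeds or postemergence at the 1- to 4-leaf stage.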

[8] = test system: goosegrass (Eleusine indica); test: Test C pre/postemergence; conditions: Eleusine indica; for pest or weed control at 8 g/ha: 8 g ai/ha; for pest or weed control at 16 g/ha: 16 g ai/ha; for pest or weed control at 31 g/ha: 31 g ai/ha; for pest or weed control at 62 g/ha: 62 g ai/ha
How it was run: as §2

[9] = test system: lambsquarters (Chenopodium album); test: Test C pre/postemergence; conditions: Chenopodium album; for pest or weed control at 8 g/ha: 8 g ai/ha; for pest or weed control at 16 g/ha: 16 g ai/ha; for pest or weed control at 31 g/ha: 31 g ai/ha; for pest or weed control at 62 g/ha: 62 g ai/ha
How it was run: as §2

[10] = test system: velvetleaf (Abutilon theophrasti); test: Test C pre/postemergence; conditions: Abutilon theophrasti; for pest or weed control at 8 g/ha: 8 g ai/ha; for pest or weed control at 16 g/ha: 16 g ai/ha; for pest or weed control at 31 g/ha: 31 g ai/ha; for pest or weed control at 62 g/ha: 62 g ai/ha
How it was run: as §2

[11] = test system: chickweed (Stellaria media); test: Test C postemergence; conditions: Stellaria media, post-emergence
How it was run: as §2

[12] = post-emergence, Postemergence, 0 to 100 scale (0 no effect, 100 complete control)
[13] = pre-emergence, Preemergence, 0 to 100 scale where 0 is no effect and 100 is complete control, approximately ten days
[14] = post-emergence, Postemergence, read-out: Plant response rating (scale of 0 to 100), Foxtail, Giant
[15] = pre-emergence, Preemergence, scale 0 to 100, 0 no effect, 100 complete control, read-out: Plant response rating, Foxtail, Giant
[16] = post-emergence, Postemergence, read-out: Plant response rating (scale of 0 to 100), Goosegrass
[17] = pre-emergence, Preemergence, scale 0 to 100, 0 no effect, 100 complete control, read-out: Plant response rating, Goosegrass
[18] = post-emergence, Postemergence, read-out: Plant response rating (scale of 0 to 100), Lambsquarters
[19] = pre-emergence, Preemergence, scale 0 to 100, 0 no effect, 100 complete control, read-out: Plant response rating, Lambsquarters
[20] = post-emergence, Postemergence, read-out: Plant response rating (scale of 0 to 100), Velvetleaf
[21] = pre-emergence, Preemergence, scale 0 to 100, 0 no effect, 100 complete control, read-out: Plant response rating, Velvetleaf

Nc1nc(-c2ccc(Br)cc2)nc(C(=O)O)c1Cl [Compound 95, 6-amino-2-(4-bromophenyl)-5-chloro-4-pyrimidinecarboxylic acid]
pest or weed control at 125 g/ha [1, 12]: 75%
pest or weed control at 500 g/ha [1, 12]: 90%
pest or weed control at 125 g/ha [1, 13]: 20%
pest or weed control at 500 g/ha [1, 13]: 80%
pest or weed control at 125 g/ha [2, 12]: 70%
pest or weed control at 500 g/ha [2, 12]: 80%
pest or weed control at 125 g/ha [2, 13]: 65%
pest or weed control at 500 g/ha [2, 13]: 85%
pest or weed control at 125 g/ha [3, 12]: 85%
pest or weed control at 500 g/ha [3, 12]: 85%
pest or weed control at 125 g/ha [3, 13]: 65%
pest or weed control at 500 g/ha [3, 13]: 90%
pest or weed control at 125 g/ha [4, 12]: 75%
pest or weed control at 500 g/ha [4, 12]: 80%
pest or weed control at 125 g/ha [4, 13]: 80%
pest or weed control at 500 g/ha [4, 13]: 85%
pest or weed control at 125 g/ha [5, 12]: 85%
pest or weed control at 500 g/ha [5, 12]: 95%
pest or weed control at 125 g/ha [5, 13]: 95%
pest or weed control at 500 g/ha [5, 13]: 100%
pest or weed control at 125 g/ha [6, 12]: 90%
pest or weed control at 500 g/ha [6, 12]: 95%
pest or weed control at 125 g/ha [6, 13]: 55%
pest or weed control at 500 g/ha [6, 13]: 95%
pest or weed control at 8 g/ha ([7]; post-emergence, Postemergence, scale 0 to 100, read-out: Plant response rating, Foxtail, Giant): 70%
pest or weed control at 31 g/ha [7, 14]: 75%
pest or weed control at 62 g/ha [7, 14]: 80%
pest or weed control at 8 g/ha ([7]; pre-emergence, Preemergence, scale 0 to 100 (0 no effect, 100 complete control), read-out: Plant response rating, Foxtail, Giant): 0%
pest or weed control at 16 g/ha ([7]; pre-emergence, Preemergence, 16 g ai/ha, scale 0 to 100, 0 no effect, 100 complete control, read-out: Plant response rating, Foxtail, Giant): 0%
pest or weed control at 31 g/ha [7, 15]: 30%
pest or weed control at 62 g/ha [7, 15]: 35%
pest or weed control at 8 g/ha ([8]; post-emergence, Postemergence, scale 0 to 100, read-out: Plant response rating, Goosegrass): 50%
pest or weed control at 16 g/ha [8, 16]: 65%
pest or weed control at 31 g/ha [8, 16]: 75%
pest or weed control at 62 g/ha [8, 16]: 80%
pest or weed control at 8 g/ha ([8]; pre-emergence, Preemergence, scale 0 to 100 (0 no effect, 100 complete control), read-out: Plant response rating, Goosegrass): 0%
pest or weed control at 16 g/ha [8, 17]: 0%
pest or weed control at 31 g/ha [8, 17]: 10%
pest or weed control at 62 g/ha [8, 17]: 40%
pest or weed control at 8 g/ha ([9]; post-emergence, Postemergence, scale 0 to 100, read-out: Plant response rating, Lambsquarters): 75%
pest or weed control at 16 g/ha [9, 18]: 100%
pest or weed control at 31 g/ha [9, 18]: 100%
pest or weed control at 62 g/ha [9, 18]: 100%
pest or weed control at 8 g/ha ([9]; pre-emergence, Preemergence, scale 0 to 100 (0 no effect, 100 complete control), read-out: Plant response rating, Lambsquarters): 0%
pest or weed control at 16 g/ha [9, 19]: 100%
pest or weed control at 31 g/ha [9, 19]: 100%
pest or weed control at 62 g/ha [9, 19]: 100%
pest or weed control at 8 g/ha ([10]; post-emergence, Postemergence, scale 0 to 100, read-out: Plant response rating, Velvetleaf): 95%
pest or weed control at 16 g/ha [10, 20]: 95%
pest or weed control at 31 g/ha [10, 20]: 100%
pest or weed control at 62 g/ha [10, 20]: 100%
pest or weed control at 8 g/ha ([10]; pre-emergence, Preemergence, scale 0 to 100 (0 no effect, 100 complete control), read-out: Plant response rating, Velvetleaf): 0%
pest or weed control at 16 g/ha [10, 21]: 0%
pest or weed control at 31 g/ha [10, 21]: 60%
pest or weed control at 62 g/ha [10, 21]: 90%
pest or weed control at 8 g/ha ([11]; 8 g ai/ha, scale 0 to 100, read-out: Plant response rating, Chickweed): 95%
pest or weed control at 62 g/ha ([11]; 62 g ai/ha, read-out: Plant response rating (scale of 0 to 100), Chickweed): 95%
